Experimental data taken from patent publication US8586591B2, “Aminopyrazine derivative and medicine” (Nippon Shinyaku Co., Ltd., priority 2009, dated 2013).
Where a name gives a salt, the structure may show the parent alone.

Columns and labels:
[1] = target: T1, JAK3 tyrosine kinase (Homo sapiens, UniProt P52333); assay: Test 1: inhibitory activity to JAK3 tyrosine kinase (ELISA); assay type: biochemical; details: 25 μM ATP in substrate solution, 30° C. for 1 hour, n=2
T1 construct: purchased Carnabioscience Co
T1 sequence (P52333 1-1124): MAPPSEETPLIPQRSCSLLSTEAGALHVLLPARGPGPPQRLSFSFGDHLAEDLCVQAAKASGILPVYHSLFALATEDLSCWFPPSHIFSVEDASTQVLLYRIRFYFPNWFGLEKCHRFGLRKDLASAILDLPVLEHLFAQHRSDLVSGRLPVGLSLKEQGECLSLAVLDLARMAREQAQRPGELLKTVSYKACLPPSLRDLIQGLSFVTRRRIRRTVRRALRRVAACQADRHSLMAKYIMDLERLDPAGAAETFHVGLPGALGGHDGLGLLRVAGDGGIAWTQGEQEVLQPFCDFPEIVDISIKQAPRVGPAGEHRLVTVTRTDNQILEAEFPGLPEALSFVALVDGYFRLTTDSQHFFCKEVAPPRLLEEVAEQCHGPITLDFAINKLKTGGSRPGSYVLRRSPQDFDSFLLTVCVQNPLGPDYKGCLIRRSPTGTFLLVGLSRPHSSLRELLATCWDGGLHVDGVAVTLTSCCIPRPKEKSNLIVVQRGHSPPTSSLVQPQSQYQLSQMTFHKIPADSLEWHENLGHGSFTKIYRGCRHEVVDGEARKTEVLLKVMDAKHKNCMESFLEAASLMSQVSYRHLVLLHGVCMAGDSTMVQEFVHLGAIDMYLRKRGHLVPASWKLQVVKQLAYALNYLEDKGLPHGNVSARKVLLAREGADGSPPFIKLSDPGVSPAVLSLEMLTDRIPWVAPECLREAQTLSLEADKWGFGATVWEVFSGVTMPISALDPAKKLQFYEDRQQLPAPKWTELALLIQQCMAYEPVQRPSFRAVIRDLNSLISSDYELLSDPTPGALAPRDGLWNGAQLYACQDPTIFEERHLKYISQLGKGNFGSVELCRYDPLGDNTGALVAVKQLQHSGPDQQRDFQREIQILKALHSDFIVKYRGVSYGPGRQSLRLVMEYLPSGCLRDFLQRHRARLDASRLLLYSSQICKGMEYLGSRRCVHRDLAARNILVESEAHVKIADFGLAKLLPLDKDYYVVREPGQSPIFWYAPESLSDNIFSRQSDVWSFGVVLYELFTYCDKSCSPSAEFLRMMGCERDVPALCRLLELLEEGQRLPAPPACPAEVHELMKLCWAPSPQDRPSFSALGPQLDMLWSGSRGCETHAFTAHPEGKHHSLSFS
Protocol: Test 1: Test for inhibitory activity to JAK2 and JAK3 tyrosine kinase 1. […] The test material was dissolved in dimethylsulfoxide (DMSO) to be 10 mM, and further diluted with DMSO to be 100-fold concentrations for measurement (1000, 300, 100, 30, 10, 3, 1, 0.3, 0.1, 0.03, 0.01 μM). In addition, solutions diluted with an assay buffer up to 20 times were used as solutions of the test material. As a negative control, a solution of DMSO diluted 20 times with an assay buffer was used. […] 2. Measurement of the Activities of JAK2 and JAK3 Tyrosine Kinases The activity was determined by ELISA. […] The absorbance was measured by means of a micro-plate reader (BIO-RAD; Model 3550) at 450 nm. 3. Analysis of the Results of the Measurement The measured absorbance was subjected to a non-linear regression analysis by means of a SAS system (SAS Institute Inc.), and the concentration (IC50) of the test material which inhibited 50% of the activity of each tyrosine kinase was estimated.

[2] = target: T2, JAK2 tyrosine kinase (Homo sapiens, UniProt O60674); assay: Test 1: inhibitory activity to JAK2 tyrosine kinase (ELISA); assay type: biochemical; details: 25 μM ATP in substrate solution, 30° C. for 1 hour, n=2
T2 construct: purchased Carnabioscience Co
Protocol: Test 1: Test for inhibitory activity to JAK2 and JAK3 tyrosine kinase 1. Preparation of Test Material
The test material was dissolved in dimethylsulfoxide (DMSO) to be 10 mM, and further diluted with DMSO to be 100-fold concentrations for measurement (1000, 300, 100, 30, 10, 3, 1, 0.3, 0.1, 0.03, 0.01 μM). In addition, solutions diluted with an assay buffer up to 20 times were used as solutions of the test material. As a negative control, a solution of DMSO diluted 20 times with an assay buffer was used. As the assay buffer, 15 mM Tris-Cl (pH 7.5), 0.01 v/v % Tween-20, and 1 mM dithiothreitol were used.
2. Measurement of the Activities of JAK2 and JAK3 Tyrosine Kinases
The activity was determined by ELISA. The solution of the test material (10 μl each; n=2) was placed in a streptavidine-coated 96 well plate (DELFIA Strip Plate 8×12 wells; Perkin Elmer), to which 20 μl each of substrate solution (625 nM biotin-labeled peptide substrate, 25 μM ATP, 25 mM MgCl2, 15 mM Tris-Cl (pH 7.5), 0.01 v/v % Tween-20, and 1 mM dithiothreitol), was added and stirred. Finally, 20 μl each of JAK2 tyrosine kinase (Carnabioscience Co.) (diluted to 0.75 nM with assay buffer) or JAK3 tyrosine kinase (Carnabioscience Co.) (diluted to 0.75 nM with assay buffer) was added, stirred and allowed to stand at 30° C. for 1 hour. The plate was washed 4 times with a washing buffer (50 mM Tris-Cl, pH 7.5, 150 mM NaCl, 0.02 v/v % Tween-20), and then a blocking buffer (0.1% Bovine Serum Albumin, 50 mM Tris-Cl, pH 7.5, 150 mM NaCl, 0.02 v/v % Tween-20)(150 μl each) was added for blocking at 30° C. for 30 minutes. Blocking buffer was removed, and there was added 100 μl each of horse radish peroxidase-labeled anti-phosphorylated tyrosin kinase antibody (BD Bioscience Co.) (diluted 10,000 times with blocking buffer). The plate was incubated at 30° C. for 30 minutes and then washed 4 times with a washing buffer, and 100 μl each of 3,3′,5,5′-tetramethylbenzidine (Sigma-Aldrich Co.) was added to develop color for 10 minutes. 0.1 M sulfuric acid (100 μl each) was added to stop the reaction. The absorbance was measured by means of a micro-plate reader (BIO-RAD; Model 3550) at 450 nm.
3. Analysis of the Results of the Measurement
The measured absorbance was subjected to a non-linear regression analysis by means of a SAS system (SAS Institute Inc.), and the concentration (IC50) of the test material which inhibited 50% of the activity of each tyrosine kinase was estimated.

T2 sequence (O60674 whole entry): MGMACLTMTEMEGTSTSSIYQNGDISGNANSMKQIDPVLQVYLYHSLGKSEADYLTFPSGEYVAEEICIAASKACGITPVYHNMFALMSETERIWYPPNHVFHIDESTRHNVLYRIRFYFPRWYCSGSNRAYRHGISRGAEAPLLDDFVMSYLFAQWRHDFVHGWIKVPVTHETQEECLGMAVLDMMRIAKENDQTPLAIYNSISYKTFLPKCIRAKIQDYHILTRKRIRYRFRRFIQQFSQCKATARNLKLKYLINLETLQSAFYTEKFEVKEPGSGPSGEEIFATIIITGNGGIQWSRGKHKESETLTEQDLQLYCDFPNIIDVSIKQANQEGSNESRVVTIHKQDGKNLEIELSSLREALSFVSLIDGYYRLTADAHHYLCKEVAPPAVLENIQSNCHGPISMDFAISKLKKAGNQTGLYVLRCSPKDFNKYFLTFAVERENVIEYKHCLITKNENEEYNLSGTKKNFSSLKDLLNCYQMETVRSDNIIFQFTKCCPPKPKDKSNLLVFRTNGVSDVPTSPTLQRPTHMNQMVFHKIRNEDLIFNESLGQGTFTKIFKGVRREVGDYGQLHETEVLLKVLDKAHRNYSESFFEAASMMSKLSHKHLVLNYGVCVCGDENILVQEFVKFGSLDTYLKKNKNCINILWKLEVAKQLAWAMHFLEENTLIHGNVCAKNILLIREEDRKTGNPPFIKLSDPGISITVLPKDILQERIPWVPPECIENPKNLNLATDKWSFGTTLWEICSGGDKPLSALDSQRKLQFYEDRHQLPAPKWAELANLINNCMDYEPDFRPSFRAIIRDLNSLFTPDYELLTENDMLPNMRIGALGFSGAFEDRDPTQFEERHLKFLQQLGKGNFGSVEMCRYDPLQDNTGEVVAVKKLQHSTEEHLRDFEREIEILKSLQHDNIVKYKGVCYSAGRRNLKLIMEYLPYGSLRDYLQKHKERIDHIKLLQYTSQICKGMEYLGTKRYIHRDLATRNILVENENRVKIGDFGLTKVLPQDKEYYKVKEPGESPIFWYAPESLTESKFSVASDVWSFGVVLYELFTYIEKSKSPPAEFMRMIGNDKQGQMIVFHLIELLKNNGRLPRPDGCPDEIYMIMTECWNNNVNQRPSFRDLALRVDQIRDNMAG

Structure (SMILES)	IC50 [1]	IC50 [2]
C[C@H](Nc1nc(NCCN)cc(Nc2cnccn2)n1)c1ccc(F)cc1 [Example 76, (S)—N^4-(2-Aminoethyl)-N^2-[1-(4-fluorophenyl)ethyl]-N^6-(pyrazin-2-yl)pyrimidine-2,4,6-triamine dihydrochloride]	57 nM	2.5 nM
C[C@H](Nc1nc(NCc2ccccn2)cc(Nc2cnccn2)n1)c1ccc(F)cc1 [Example 106, (S)—N^2-[1-(4-Fluorophenyl)ethyl]-N^4-(pyrazin-2-yl)-N^6-(pyridin-2-ylmethyl)pyrimidine-2,4,6-triamine]	110 nM	1.9 nM
C[C@H](Nc1nc(Nc2cnccn2)cc(N2CCC[C@H]2CO)n1)c1ccc(F)cc1 [Example 69, ((S)-1-{2-[(S)-1-(4-Fluorophenyl)ethylamino]-6-(pyrazin-2-ylamino)pyrimidin-4-yl}pyrrolidin-2-yl)methanol]	83 nM	2.6 nM
C[C@H](Nc1nc(Nc2cnccn2)cc(OCCO)n1)c1ccc(F)cc1 [Example 95, (S)-2-{2-[1-(4-Fluorophenyl)ethylamino]-6-(pyrazin-2-ylamino)pyrimidin-4-yloxy}ethanol hydrochloride]	110 nM	2.2 nM
COCCn1cc(-c2cc(Nc3cnccn3)nc(N[C@@H](C)c3ccc(F)cc3)c2)cn1 [Example 217, (S)—N^2-[1-(4-Fluorophenyl)ethyl]-4-[1-(2-methoxyethyl)-1H-pyrazol-4-yl]-N^6-(pyrazin-2-yl)pyridine-2,6-diamine]	36 nM	1.5 nM
C[C@H](Nc1cc(-c2ccc(C(N)=O)cc2)cc(Nc2cnccn2)n1)c1ccc(F)cc1 [Example 115, (S)-4-{2-[1-(4-Fluorophenyl)ethylamino]-6-(pyrazin-2-ylamino)pyridin-4-yl}benzamide dihydrochloride]	210 nM	2.3 nM
C[C@H](Nc1cc(N2CC(O)C2)cc(Nc2cnccn2)n1)c1ccc(F)cc1 [Example 202, (S)-1-{2-[1-(4-Fluorophenyl)ethylamino]-6-(pyrazin-2-ylamino)pyridin-4-yl}azetidin-3-ol hydrochloride]	470 nM	4.7 nM
C[C@H](Nc1cc(N2CCOCC2)cc(Nc2cnccn2)n1)c1ccc(F)cc1 [Example 39, (S)—N^2-[1-(4-Fluorophenyl)ethyl]-4-morpholine-N^6-(pyrazin-2-yl)pyridine-2,6-diamine]	90 nM	0.93 nM
C[C@H](Nc1cc(-c2ccoc2)cc(Nc2cnccn2)n1)c1ccc(F)cc1 [Example 123, (S)—N^2-[1-(4-Fluorophenyl)ethyl]-4-(furan-3-yl)-N^6-(pyrazin-2-yl)pyridine-2,6-diamine]	330 nM	5.4 nM
COC1(C(C)C)CN(c2cc(Nc3cnccn3)nc(N[C@@H](C)c3ccc(F)cc3)c2)C1 [Example 212, (S)—N^2-[1-(4-Fluorophenyl)ethyl]-4-(3-isopropyl-3-methoxyazetidin-1-yl)-N^6-(pyrazin-2-yl)pyridine-2,6-diamine hydrochloride]	160 nM	15 nM
C[C@H](Nc1cc(-c2cnco2)cc(Nc2cnccn2)n1)c1ccc(F)cc1 [Example 8, (S)—N^2-[1-(4-Fluorophenyl)ethyl]-4-(oxazol-5-yl)-N^6-(pyrazin-2-yl)pyridine-2,6-diamine]	82 nM	1.1 nM
CC(=O)Nc1cc(Nc2cnccn2)nc(N[C@@H](C)c2ccc(F)cc2)c1 [Example 208, (S)—N-{2-[1-(4-Fluorophenyl)ethylamino]-6-(pyrazin-2-ylamino)pyridin-4-yl}acetamide]	100 nM	1.4 nM
CCOCCNC(=O)c1cc(Nc2cnccn2)nc(N[C@@H](C)c2ccc(F)cc2)c1 [Example 173, (S)—N-(2-Ethoxyethyl)-2-[1-(4-fluorophenyl)ethylamino]-6-(pyrazin-2-ylamino)isonicotinamide]	200 nM	1.5 nM
COC1(C)CN(c2cc(Nc3cnccn3)nc(N[C@@H](C)c3ccc(F)cc3)c2)C1 [Example 213, (S)—N^2-[1-(4-Fluorophenyl)ethyl]-4-(3-methoxy-3-methylazetidin-1-yl)-N^6-(pyrazin-2-yl)pyridine-2,6-diamine hydrochloride]	130 nM	3.2 nM
C[C@H](Nc1nc(Nc2cnccn2)cc(N2CCNC2=O)n1)c1ccc(F)cc1 [Example 21, (S)-1-{2-[1-(4-Fluorophenyl)ethylamino]-6-(pyrazin-2-ylamino)pyrimidin-4-yl}imidazolidin-2-one hydrochloride]	950 nM	8.7 nM
COCc1cc(Nc2cnccn2)nc(N[C@@H](C)c2ccc(F)cc2)c1 [Example 175, (S)—N^2-[1-(4-Fluorophenyl)ethyl]-4-(methoxymethyl)-N^6-(pyrazin-2-yl)pyridine-2,6-diamine]	400 nM	4.9 nM
CCN(CC)C(=O)C1CN(c2cc(Nc3cnccn3)nc(N[C@@H](C)c3ccc(F)cc3)n2)C1 [Example 181, (S)—N,N-Diethyl-1-{2-[1-(4-fluorophenyl)ethylamino]-6-(pyrazin-2-ylamino)pyrimidin-4-yl}azetidine-3-carboxamide]	56 nM	2.2 nM
Cc1cc(Nc2cnccn2)nc(N[C@@H](C)c2ccc(F)cc2)c1 [Example 121, (S)—N^2-[1-(4-Fluorophenyl)ethyl]-4-methyl-N^6-(pyrazin-2-yl)pyridine-2,6-diamine hydrochloride]	170 nM	2.7 nM
C[C@H](Nc1nc(Nc2cnccn2)cc(N2CC(C)(O)C2)n1)c1ccc(F)cc1 [Example 184, (S)-1-{2-[1-(4-Fluorophenyl)ethylamino]-6-(pyrazin-2-ylamino)pyrimidin-4-yl}-3-methylazetidin-3-ol hydrochloride]	45 nM	0.92 nM
